# Source: paper PMC5218480 (PLoS ONE, 2017)
# System: MV-4-11 cells
# Assay: Gene expression microarray analysis (Affymetrix PrimeView) and GSEA
# Format: cell-based, human
# Design: RFU PODN (11730768_x_at) / Fold change /veh PODN (11730768_x_at) / RFU LINC00158 (11744669_a_at) / Fold change /veh LINC00158 (11744669_a_at) / RFU DUSP10 (11751237_a_at) / Fold change /veh DUSP10 (11751237_a_at) / RFU ID3 (11757404_x_at) / Fold change /veh ID3 (11757404_x_at) / RFU PLEKHG5 (11737974_s_at) / Fold change /veh PLEKHG5 (11737974_s_at) / RFU LRRC4B (11730491_at) / Fold change /veh LRRC4B (11730491_at) / RFU GIMAP4 (11747438_a_at) / Fold change /veh GIMAP4 (11747438_a_at) / RFU KRT8 (11758183_x_at) / Fold change /veh KRT8 (11758183_x_at) / RFU CNN1 (11734310_a_at) / Fold change /veh CNN1 (11734310_a_at) / RFU VPS37D (11726825_at) / Fold change /veh VPS37D (11726825_at) / RFU C10orf10 (11716522_x_at) / Fold change /veh C10orf10 (11716522_x_at) / RFU KIR2DL2 /// KIR2DL4 /// KIR2DL5A /// KIR2DL5B /// KIR2DS1 /// KIR2DS2 /// KIR2DS3 /// KIR2DS4 /// KIR3DL3 /// KIR3DL3 /// KIR3DS1 (11738374_at) / Fold change /veh KIR2DL2 /// KIR2DL4 /// KIR2DL5A /// KIR2DL5B /// KIR2DS1 /// KIR2DS2 /// KIR2DS3 /// KIR2DS4 /// KIR3DL3 /// KIR3DL3 /// KIR3DS1 (11738374_at) / RFU C1QL1 (11718748_at) / Fold change /veh C1QL1 (11718748_at) / RFU TMPRSS4 (11747572_a_at) / Fold change /veh TMPRSS4 (11747572_a_at) / RFU HAMP (11756126_x_at) / Fold change /veh HAMP (11756126_x_at) / RFU RNFT2 (11725882_a_at) / Fold change /veh RNFT2 (11725882_a_at) / RFU NR4A2 (11747474_a_at) / Fold change /veh NR4A2 (11747474_a_at) / RFU ABCC12 (11746883_a_at) / Fold change /veh ABCC12 (11746883_a_at) / RFU TMEM136 (11760407_x_at) / Fold change /veh TMEM136 (11760407_x_at) / RFU CLDN22 /// WWC2 (11732394_at) / Fold change /veh CLDN22 /// WWC2 (11732394_at) / RFU HLA-DPB1 (11760878_x_at) / Fold change /veh HLA-DPB1 (11760878_x_at) / RFU SPINT1 (11716480_a_at) / Fold change /veh SPINT1 (11716480_a_at) / RFU GAP43 (11754022_s_at) / Fold change /veh GAP43 (11754022_s_at) / RFU A4GNT (11735810_at) / Fold change /veh A4GNT (11735810_at) / RFU PRB3 (11715151_x_at) / Fold change /veh PRB3 (11715151_x_at) / RFU TUBB4B (11761932_at) / Fold change /veh TUBB4B (11761932_at) / RFU CAPN14 (11732068_a_at) / Fold change /veh CAPN14 (11732068_a_at) / RFU TMCC2 (11721928_a_at) / Fold change /veh TMCC2 (11721928_a_at) / RFU IRGQ (11745062_a_at) / Fold change /veh IRGQ (11745062_a_at) / RFU FAM174B (11720279_a_at) / Fold change /veh FAM174B (11720279_a_at) / RFU TMPRSS4 (11748680_a_at) / Fold change /veh TMPRSS4 (11748680_a_at) / RFU FAM212B (11763350_a_at) / Fold change /veh FAM212B (11763350_a_at) / RFU PLEKHG5 (11743358_a_at) / Fold change /veh PLEKHG5 (11743358_a_at) / RFU ZSCAN30 (11745921_a_at) / Fold change /veh ZSCAN30 (11745921_a_at) / RFU CMKLR1 (11741424_a_at) / Fold change /veh CMKLR1 (11741424_a_at) / RFU LOC101060620 /// MAPK8IP1 (11723275_at) / Fold change /veh LOC101060620 /// MAPK8IP1 (11723275_at) / RFU SPTSSB (11747773_x_at) / Fold change /veh SPTSSB (11747773_x_at) / RFU PRSS12 (11739890_at) / Fold change /veh PRSS12 (11739890_at) / RFU BIN1 (11741810_x_at) / Fold change /veh BIN1 (11741810_x_at) / RFU WNT11 (11732464_a_at) / Fold change /veh WNT11 (11732464_a_at) / RFU C10orf10 (11716521_a_at) / Fold change /veh C10orf10 (11716521_a_at) / RFU C5orf56 (11738089_at) / Fold change /veh C5orf56 (11738089_at) / RFU CYB561 (11721691_x_at) / Fold change /veh CYB561 (11721691_x_at) / RFU ANKRD19P (11752326_a_at) / Fold change /veh ANKRD19P (11752326_a_at) / RFU OR2T12 /// OR2T33 /// OR2T8 (11738714_s_at) / Fold change /veh OR2T12 /// OR2T33 /// OR2T8 (11738714_s_at) / RFU VCAN (11748164_a_at) / Fold change /veh VCAN (11748164_a_at) / RFU JSRP1 (11732532_at) / Fold change /veh JSRP1 (11732532_at) / RFU KRTAP10-11 (11738290_x_at) / Fold change /veh KRTAP10-11 (11738290_x_at) / RFU MYO3A (11730013_a_at) / Fold change /veh MYO3A (11730013_a_at) / RFU EBF3 (11725865_a_at) / Fold change /veh EBF3 (11725865_a_at) / RFU CAMK2N1 (11719241_x_at) / Fold change /veh CAMK2N1 (11719241_x_at) / RFU C5orf56 (11738088_a_at) / Fold change /veh C5orf56 (11738088_a_at) / RFU OLFML3 (11715873_a_at) / Fold change /veh OLFML3 (11715873_a_at) / RFU LOC100653217 /// NTM (11731650_a_at) / Fold change /veh LOC100653217 /// NTM (11731650_a_at) / RFU MAPK11 (11762145_a_at) / Fold change /veh MAPK11 (11762145_a_at) / RFU FIZ1 (11724087_x_at) / Fold change /veh FIZ1 (11724087_x_at) / RFU OASL (11726364_x_at) / Fold change /veh OASL (11726364_x_at) / RFU SOX15 (11748057_x_at) / Fold change /veh SOX15 (11748057_x_at) / RFU CD79A (11719716_a_at) / Fold change /veh CD79A (11719716_a_at) / RFU HIST1H1D (11736915_at) / Fold change /veh HIST1H1D (11736915_at) / RFU CASKIN2 (11723855_a_at) / Fold change /veh CASKIN2 (11723855_a_at) / RFU LOC730098 (11760151_x_at) / Fold change /veh LOC730098 (11760151_x_at) / RFU OR4N2 (11742367_at) / Fold change /veh OR4N2 (11742367_at) / RFU PRRT2 (11749266_a_at) / Fold change /veh PRRT2 (11749266_a_at) / RFU SNX32 (11753110_a_at) / Fold change /veh SNX32 (11753110_a_at) / RFU CDHR5 (11726645_a_at) / Fold change /veh CDHR5 (11726645_a_at) / RFU RCAN1 (11760418_a_at) / Fold change /veh RCAN1 (11760418_a_at) / RFU FAM167A (11723789_a_at) / Fold change /veh FAM167A (11723789_a_at) / RFU FAM26E (11764081_at) / Fold change /veh FAM26E (11764081_at) / RFU ISYNA1 (11749810_s_at) / Fold change /veh ISYNA1 (11749810_s_at) / RFU ACY1 (11761880_at) / Fold change /veh ACY1 (11761880_at) / RFU 11764098_at / Fold change /veh 11764098_at / RFU SAMD14 (11745864_x_at) / Fold change /veh SAMD14 (11745864_x_at) / RFU NPB (11741838_a_at) / Fold change /veh NPB (11741838_a_at) / RFU TMPRSS6 (11731388_a_at) / Fold change /veh TMPRSS6 (11731388_a_at) / RFU KRTAP10-2 (11738614_at) / Fold change /veh KRTAP10-2 (11738614_at) / RFU ARHGAP8 /// PRR5-ARHGAP8 (11727945_x_at) / Fold change /veh ARHGAP8 /// PRR5-ARHGAP8 (11727945_x_at) / RFU KRTAP5-7 /// NADSYN1 (11734609_at) / Fold change /veh KRTAP5-7 /// NADSYN1 (11734609_at) / RFU RASL12 (11751679_a_at) / Fold change /veh RASL12 (11751679_a_at) / RFU CDKN2B (11736163_a_at) / Fold change /veh CDKN2B (11736163_a_at) / RFU PRF1 (11729649_at) / Fold change /veh PRF1 (11729649_at) / RFU, ZNF638 /// ZNF638-IT1 / Fold change vs veh, ZNF638 /// ZNF638-IT1 / RFU, PANK3 / Fold change vs veh, PANK3 / RFU, SH3YL1 / Fold change vs veh, SH3YL1 / RFU, ZEB2 / Fold change vs veh, ZEB2 / RFU, NRIP1 / Fold change vs veh, NRIP1 / RFU, PTTG1IP / Fold change vs veh, PTTG1IP / RFU, CAPN2 / Fold change vs veh, CAPN2 / RFU, MED14 / Fold change vs veh, MED14 / RFU, SNORA58 / Fold change vs veh, SNORA58 / RFU, C1orf63 / Fold change vs veh, C1orf63 / RFU, LRRFIP1 / Fold change vs veh, LRRFIP1 / RFU, NDUFAF7 / Fold change vs veh, NDUFAF7 / RFU, SLC12A2 / Fold change vs veh, SLC12A2 / RFU, IBTK / Fold change vs veh, IBTK / RFU, ESF1 / Fold change vs veh, ESF1 / Fold change vs veh, TMEM50B / RFU, TAOK1 / Fold change vs veh, TAOK1 / RFU, ACBD3 / Fold change vs veh, ACBD3 / RFU, TMA16 / Fold change vs veh, TMA16 / RFU, RWDD3 / Fold change vs veh, RWDD3 / RFU, BCAT1 / Fold change vs veh, BCAT1 / RFU, EDEM3 / Fold change vs veh, EDEM3 / RFU, TMEM33 / Fold change vs veh, TMEM33 / RFU, WDR75 / Fold change vs veh, WDR75 / RFU, AHCTF1 / Fold change vs veh, AHCTF1 / RFU, TFRC / Fold change vs veh, TFRC / RFU, ZDHHC17 / Fold change vs veh, ZDHHC17 / RFU, NOM1 / Fold change vs veh, NOM1 / RFU, ARL8B / Fold change vs veh, ARL8B / RFU, ZBTB11 / Fold change vs veh, ZBTB11 / RFU, TAMM41 / Fold change vs veh, TAMM41 / RFU, KIAA1704 /// LOC100996395 / Fold change vs veh, KIAA1704 /// LOC100996395 / RFU, ING1 / Fold change vs veh, ING1 / RFU, TRMT61B / Fold change vs veh, TRMT61B / RFU, FUBP3 / Fold change vs veh, FUBP3 / RFU, TP53 / Fold change vs veh, TP53 / RFU, TNKS2 / Fold change vs veh, TNKS2 / RFU, ZFP14 / Fold change vs veh, ZFP14 / RFU, ACTR2 / Fold change vs veh, ACTR2 / RFU, PPP3R1 / Fold change vs veh, PPP3R1 / RFU, PIK3R1 / Fold change vs veh, PIK3R1 / RFU, HNRNPA1 / Fold change vs veh, HNRNPA1 / RFU, RNF170 / Fold change vs veh, RNF170 / RFU, ZNF28 / Fold change vs veh, ZNF28 / RFU, RNGTT / Fold change vs veh, RNGTT / RFU, OGT / Fold change vs veh, OGT / RFU, BRD1 / Fold change vs veh, BRD1 / RFU, MARS / Fold change vs veh, MARS / RFU, ZNF655 / Fold change vs veh, ZNF655 / RFU, FAHD1 / Fold change vs veh, FAHD1 / RFU, BDP1 / Fold change vs veh, BDP1 / RFU, LRRCC1 / Fold change vs veh, LRRCC1 / RFU, ARID1A / Fold change vs veh, ARID1A / RFU, ZNF146 / Fold change vs veh, ZNF146 / RFU, ZNF330 / Fold change vs veh, ZNF330 / RFU, GPN3 / Fold change vs veh, GPN3 / RFU, C9orf123 / Fold change vs veh, C9orf123 / RFU, N4BP2L2 / Fold change vs veh, N4BP2L2 / RFU, ARFIP1 / Fold change vs veh, ARFIP1 / RFU, FAM179B / Fold change vs veh, FAM179B / RFU, BCL10 / Fold change vs veh, BCL10 / RFU, UHRF1BP1L / Fold change vs veh, UHRF1BP1L / RFU, BET1 / Fold change vs veh, BET1 / RFU, CNOT2 / Fold change vs veh, CNOT2 / RFU, ZNF268 / Fold change vs veh, ZNF268 / Fold change vs veh, ZNF507 / RFU, DGCR2 / Fold change vs veh, DGCR2 / RFU, WDSUB1 / Fold change vs veh, WDSUB1 / Fold change vs veh, HSP90B1 /// MIR3652 / RFU, ADSS / Fold change vs veh, ADSS / RFU, GK / Fold change vs veh, GK / RFU, ZNF148 / Fold change vs veh, ZNF148 / RFU, TAF9 / Fold change vs veh, TAF9 / RFU, SLC1A5 / Fold change vs veh, SLC1A5 / RFU, SLMO2 / Fold change vs veh, SLMO2 / RFU, ABCC4 / Fold change vs veh, ABCC4 / RFU, LOC101060439 /// RAP1B / Fold change vs veh, LOC101060439 /// RAP1B / RFU, RFX7 / Fold change vs veh, RFX7 / RFU, GTPBP10 / Fold change vs veh, GTPBP10 / RFU, CNEP1R1 / Fold change vs veh, CNEP1R1 / RFU, BIVM-ERCC5 /// ERCC5 / Fold change vs veh, BIVM-ERCC5 /// ERCC5 / RFU, ILF3 / Fold change vs veh, ILF3 / RFU 11762660_at / Fold change /veh 11762660_at / RFU VCAN (11757783_s_at) / Fold change /veh VCAN (11757783_s_at) / RFU DDX43 (11728927_at) / Fold change /veh DDX43 (11728927_at) / RFU KRT8 (11758188_x_at) / Fold change /veh KRT8 (11758188_x_at) / RFU NKD1 (11759106_at) / Fold change /veh NKD1 (11759106_at) / RFU SRD5A1 (11742802_a_at) / Fold change /veh SRD5A1 (11742802_a_at) / RFU TPSAB1 /// TPSB2 (11721975_s_at) / Fold change /veh TPSAB1 /// TPSB2 (11721975_s_at) / RFU GSTM3 (11746129_a_at) / Fold change /veh GSTM3 (11746129_a_at) / RFU IL23R (11737362_x_at) / Fold change /veh IL23R (11737362_x_at) / RFU TMEM51 (11727254_a_at) / Fold change /veh TMEM51 (11727254_a_at) / RFU PIWIL2 (11732686_x_at) / Fold change /veh PIWIL2 (11732686_x_at) / RFU ORM1 (11744905_x_at) / Fold change /veh ORM1 (11744905_x_at) / RFU CCDC152 (11743942_at) / Fold change /veh CCDC152 (11743942_at) / RFU ECM1 (11717891_a_at) / Fold change /veh ECM1 (11717891_a_at) / RFU IL23R (11748794_a_at) / Fold change /veh IL23R (11748794_a_at) / RFU TNFAIP8L3 (11732012_x_at) / Fold change /veh TNFAIP8L3 (11732012_x_at) / RFU MBOAT4 (11741988_at) / Fold change /veh MBOAT4 (11741988_at) / RFU 11764193_at / Fold change /veh 11764193_at / RFU TMEM53 (11763286_at) / Fold change /veh TMEM53 (11763286_at) / RFU MAGEB2 (11727129_at) / Fold change /veh MAGEB2 (11727129_at) / RFU TMEM200A (11744735_a_at) / Fold change /veh TMEM200A (11744735_a_at) / RFU CCDC152 (11751479_a_at) / Fold change /veh CCDC152 (11751479_a_at) / RFU FAM211A (11726209_a_at) / Fold change /veh FAM211A (11726209_a_at) / RFU RGS16 (11746705_a_at) / Fold change /veh RGS16 (11746705_a_at) / RFU VCAN (11755009_s_at) / Fold change /veh VCAN (11755009_s_at) / RFU RHOB (11743442_s_at) / Fold change /veh RHOB (11743442_s_at) / RFU RGS16 (11720943_a_at) / Fold change /veh RGS16 (11720943_a_at) / RFU RGS16 (11720944_at) / Fold change /veh RGS16 (11720944_at) / RFU, VPS4B / Fold change vs veh, VPS4B / RFU, CREB1 / Fold change vs veh, CREB1 / RFU, DNAJC13 / Fold change vs veh, DNAJC13 / RFU, GNAQ / Fold change vs veh, GNAQ / RFU, CDK5R1 / Fold change vs veh, CDK5R1 / RFU, ZRANB3 / Fold change vs veh, ZRANB3 / RFU, CUL4A / Fold change vs veh, CUL4A / RFU, CCNY / Fold change vs veh, CCNY / RFU, UFL1 / Fold change vs veh, UFL1 / RFU, COG3 / Fold change vs veh, COG3 / RFU, DIAPH2 / Fold change vs veh, DIAPH2 / RFU, SKA2 / Fold change vs veh, SKA2 / RFU, AFF3 / Fold change vs veh, AFF3 / RFU, LMF1 / Fold change vs veh, LMF1 / RFU, IPO11 / Fold change vs veh, IPO11 / RFU, DFFB / Fold change vs veh, DFFB / RFU, FOXP1 / Fold change vs veh, FOXP1 / RFU, CARD8 / Fold change vs veh, CARD8 / RFU, STRN3 / Fold change vs veh, STRN3 / RFU, ADK / Fold change vs veh, ADK / RFU, RASSF2 / Fold change vs veh, RASSF2 / RFU, WIPF1 / Fold change vs veh, WIPF1 / RFU, LARP1B / Fold change vs veh, LARP1B / RFU, RASA1 / Fold change vs veh, RASA1 / RFU, RB1 / Fold change vs veh, RB1 / RFU, PPFIA1 / Fold change vs veh, PPFIA1 / RFU, MAT2A / Fold change vs veh, MAT2A / RFU, CCT5 / Fold change vs veh, CCT5 / RFU, WDR92 / Fold change vs veh, WDR92 / RFU, CUX1 / Fold change vs veh, CUX1 / RFU, TTC7A / Fold change vs veh, TTC7A / RFU, TMEM135 / Fold change vs veh, TMEM135 / RFU, DEPTOR / Fold change vs veh, DEPTOR / RFU, CPM / Fold change vs veh, CPM / RFU, DNAJB6 / Fold change vs veh, DNAJB6 / RFU, CACNA2D3 / Fold change vs veh, CACNA2D3 / RFU, DTX4 / Fold change vs veh, DTX4 / RFU, TFCP2 / Fold change vs veh, TFCP2 / RFU, GMCL1 /// GMCL1P1 / Fold change vs veh, GMCL1 /// GMCL1P1 / RFU, AEBP2 / Fold change vs veh, AEBP2 / RFU, SNHG1 /// SNORD22 /// SNORD25 /// SNORD26 /// SNORD27 /// SNORD28 /// SNORD29 /// SNORD31 / Fold change vs veh, SNHG1 /// SNORD22 /// SNORD25 /// SNORD26 /// SNORD27 /// SNORD28 /// SNORD29 /// SNORD31 / Fold change (Aza/veh), C12orf56 (ProbeSet 11735607_a_at) / Fold change (ACY-1035/veh), C12orf56 (ProbeSet 11735607_a_at) / Fold change (Aza/veh), FGFR1OP (ProbeSet 11751329_s_at) / Fold change (ACY-1035/veh), FGFR1OP (ProbeSet 11751329_s_at) / Fold change (Aza/veh), VPS36 (ProbeSet 11739960_a_at) / Fold change (ACY-1035/veh), VPS36 (ProbeSet 11739960_a_at) / RFU SYPL1 (11715823_x_at) / Fold change /veh SYPL1 (11715823_x_at) / RFU IGFBP7 (11715501_s_at) / Fold change /veh IGFBP7 (11715501_s_at) / RFU REEP3 (11722064_at) / Fold change /veh REEP3 (11722064_at) / RFU IGLL1 (11728026_x_at) / Fold change /veh IGLL1 (11728026_x_at): dose or concentration left out as unconfirmed
# Conditions: MV-4-11 cells, 48 hours
compound,measurement,value
Nc1ccc(-c2cccs2)cc1NC(=O)c1ccc2c(c1)cc(C1CC1)n2CCN1CCOCC1 [ACY-1035],RFU IL23R (11737362_x_at),7.94 RFU
